Data on 1 molecule can be found in patent publication US20160317654A1, “COMBINATION THERAPY WITH RAR ALPHA AGONISTS FOR ENHANCING TH1 RESPONSE” (King's College London, priority 2015, published 2016).

Structures are written as SMILES.

For this assay, the system named is fully committed Th1 cells. The assay is described as follows: Secondary repolarisation of sorted IFN-γ (eYFP+) Th1 cells under Th1 conditions in the presence of RAR inhibitor or vehicle. It counts as cell-based, mouse. Conditions: IFN-γ (eYFP+) Th1 cells sorted day 7, restimulated under Th1 conditions for 5 days with LE540 (1 μM) vs vehicle (DMSO). As for the experimental part:
Experimental conditions were as follows. Naïve CD4^+CD25^negCD44^loCD62L^hi T-cells were isolated by cell sorting by FACSAria (BD) after enrichment with a CD4^+ T-cell negative selection kit (Miltenyi Biotec). T-cell depleted splenocytes were prepared using a CD3^+ microbead selection kit (Miltenyi Biotec) followed by irradiation at 3000 rad. Naïve CD4+ T-cells were cultured for 3 days with irradiated T-cell-depleted splenocytes at a ratio of 1:5 in the presence of 5 μg/ml of anti-CD3 (145-2C11) under Th0 cell conditions (IL-2 100 IU/ml, anti-IL-4 (11B11) and anti-IFN-γ (XMG 1.2), 10 μg/ml each); Th1 cell conditions (100 IU/ml of IL-2, 10 ng/ml of IL-12, and anti-IL-4); Th2 cell conditions (100 IU/ml of IL-2, 10 ng/ml of IL-4, anti-IL-12 (C17.8), and anti-IFN-γ (XMG 1.2); or Th17 cell conditions, 5 ng/ml TGFβ, 20 ng/ml IL-6, 10 ng/ml IL-1β, anti-IL-4, and anti-IFN-γ). Cells were expanded for an additional 3-4 days. Where indicated, 10 ng/ml IFN-γ or 10 μg/ml anti-IFN-γ was added. In secondary repolarisation assays, where specified, LE540 (1 μM) or DMSO (vehicle control) was added to the media. Cytokines were from R&D. Anti-CD3 was from BioXcell and other antibodies were from BD Biosciences. All cell cultures were performed in complete RPMI containing 10% fetal bovine serum (FBS), 55 µM β-mercaptoethanol, HEPES, non-essential amino acids, glutamine, penicillin and streptomycin.
For analysis of cytokine production, cells were restimulated with 100 ng/ml phorbol 12-myristate 13-acetate (PMA) and 500 ng/ml ionomycin in the presence of monensin for 4-5 h at 37° C. in a tissue culture incubator. Cell surface staining was carried out in PBS with 2% FBS. For live cell analysis or cell sorting, dead cells were excluded by staining with SYTOX blue (Invitrogen). […] Data were collected with a LSR Fortessa (BD) and results were analyzed with FlowJo software (Tree Star). […]

Consider `CN1c2cc3c(cc2N=C(c2ccc(C(=O)O)cc2)c2ccc4ccccc4c21)C(C)(C)CCC3(C)C` [LE540], for which, for the setting “FIG. 12B”, the “Intracellular IFN-γ expression following PMA and ionomycin stimulation” value is given as “modest reductions in IFN-γ expression”. Where the note is “flow cytometry, FIG. 4B”, the “Intracellular expression of RORγt” value is listed as “emergence of cells co-expressing RORγt” and the “Intracellular expression of T-bet” value is reported as “down-regulation of T-bet”.
